For orientation: Ki means the dissociation constant of the complex between target and ligand, obtained from inhibition or displacement.

Drawing on patent US20240400579A1, “SPIROCYCLIC MODULATORS OF CHOLESTEROL BIOSYNTHESIS AND THEIR USE FOR PROMOTING REMYELINATION” (GENENTECH, INC., priority 2021, published 2024), this text covers Ki for 30 compounds.

Sequence of human EBP (Q15125 whole entry): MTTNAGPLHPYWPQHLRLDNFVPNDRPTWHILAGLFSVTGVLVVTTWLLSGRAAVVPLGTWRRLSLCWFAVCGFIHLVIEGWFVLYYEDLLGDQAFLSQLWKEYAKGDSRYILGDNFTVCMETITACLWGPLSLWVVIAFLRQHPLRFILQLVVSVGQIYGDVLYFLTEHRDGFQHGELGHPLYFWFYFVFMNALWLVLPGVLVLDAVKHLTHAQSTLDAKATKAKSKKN

The target of the first assay is human EBP (Homo sapiens (Human), UniProt Q15125). The experiment in a line: Competition binding assay (SPA) to determine compound affinity to EBP. To be noted: radioligand [3H]-Ifenprodil 10 nM; Ki=IC50/(1+[L]/Kd); HEK293 membrane; read-out: hEBP SPA Ki. Here is the method:
Membrane preparation: To examine compound binding affinity to EBP, human EBP was overexpressed in human embryonic kidney 293 cells. Cell pellet was lysed in 10 times weight binding buffer (50 mM Tris, 5 mM MgCl2, 0.1 mM EDTA, 1× protease inhibitor cocktail, pH 7.5) on ice by using a dounce homogenizer. The solution was centrifuged at 25,000 g for 50 min at 4° C. The membrane pellet was re-suspended in binding buffer and run through a 25 5/8 gauge needle. After checking the concentration by Bradford assay, the whole cell membrane solution was adjusted to 20 mg/mL and stored at −80° C.
This binding solution was centrifuged at 400 g for 5 minutes to collect the bead/membrane mixture. After re-suspending the pellet in binding buffer at the same calculated volume with 0.01% BSA (Sigma A1933), the bead/membrane mixture was added in 384-well low-binding surface plate (PerkinElmer Cat #6057480) at 25 i/well. Radioligand at different concentrations with and without the non-radio-labeled same ligand 5 uM (for nonspecific and total signal, respectively) was added to bring final volume to 50 i/well with DMSO concentration at 0.1%. At equilibrium (3 hours after ligand addition), radiometric signal CPM was counted by using a Microbeta2 microplate counter (Perkinelmer).
Competition binding assay to determine compound affinity: The same conditions of the radioligand Kd study were used for compound single dose percentage inhibition and equilibrium dissociation constant Ki examinations, except 50 nL compound DMSO stock was pre-added in 384-well low-binding surface plate (PerkinElmer Cat #6057480) by Echo 550 (Labcyte) to reach the final concentration for single dose test at 1 uM, and dose response test from 0.06 nM to 5 uM (8 dose, 5 times dilution). A pre-incubated bead/membrane mixture was added in compound plate at 0.3 mg beads and […] membrane per well. […] At equilibrium (3 hours after ligand addition), radiometric signal was counted as described above. The percentage inhibition of compound at each testing concentration was calculated by normalizing each condition's CPM readout to full block (5 uM non-radiolabeled ligand) and non-block (DMSO) control conditions. Compound binding inhibition IC50 was determined by nonlinear regression fitting of percentage inhibition plot against compound concentration. Compound Ki was calculated from the equation Ki=IC50/(1+[L]/Kd), which [L] was radioligand concentration used in assay. All tests had N bigger or equal to 2.
With `CC(C)(CN1CCC2(C1)CS(=O)(=O)C2)Oc1ccc(C(F)(F)F)nc1` [Example 135, 6-(2-Methyl-2-((6-(trifluoromethyl)pyridin-3-yl)oxy)propyl)-2-thia-6-azaspiro[3.4]octane-2,2-dioxide], the Ki worked out at 29 nM.

Consider `C[C@H](Cc1ccnc(C(F)(F)F)c1)CN1CCC2(C1)CS(=O)(=O)C2` (single isomer, unassigned) [Compound 126B], for which the Ki is 120 nM.

On to `C[C@@H](Cc1ccc(C(F)(F)F)nc1)CN1CCC2(C1)CS(=O)(=O)C2` (single isomer, unassigned) [118A*], for which the inhibition constant (Ki) is 26 nM.

With `COC(Cc1ccc(C(F)(F)F)cc1)CN1CCC2(C1)CS(=O)(=O)C2` (racemic) [Example 143, (S)-6-(2-Methoxy-3-(4-(trifluoromethyl)phenyl)propyl)-2-thia-6-azaspiro[3.4]octane 2,2-dioxide and (R)-6-(2-methoxy-3-(4-(trifluoromethyl)phenyl)propyl)-2-thia-6-azaspiro[3.4]octane 2,2-dioxide], the Ki is 27 nM.

As to `C[C@@H](Cc1cnc(C(F)(F)F)nc1)CN1CCC2(C1)CS(=O)(=O)C2` (single isomer, unassigned) [Compound 145A], the Ki was found to be 56 nM.

On to `CC(C)(CN1CCC2(C1)CS(=O)(=O)C2)Oc1cccc(C(F)(F)F)c1` [Example 130, 6-(2-Methyl-2-(3-(trifluoromethyl)phenoxy)propyl)-2-thia-6-azaspiro[3.4]octane-2,2-dioxide], for which the Ki came out at 16 nM.

In the case of `CC(C)(CN1CCC2(C1)CS(=O)(=O)C2)Oc1ccc(OC(F)(F)F)cc1` [Example 136, 6-(2-Methyl-2-(4-(trifluoromethoxy)phenoxy)propyl)-2-thia-6-azaspiro[3.4]octane 2,2-dioxide], the inhibition constant Ki was 29 nM.

`CC(C)(CN1CCC2(CC1)CS(=O)(=O)C2)Oc1ccc(C(F)(F)F)cc1` [Example 138, 7-(2-Methyl-2-(4-(trifluoromethyl)phenoxy)propyl)-2-thia-7-azaspiro[3.5]nonane 2,2-dioxide]: the Ki was determined as 16 nM.

With `CCC(C)(C)c1ccc(CC(C)CN2CCC3(C2)CS(=O)(=O)C3)cc1` (racemic) [Compound 107, 6-(2-Methyl-3-(4-(tert-pentyl)phenyl)propyl)-2-thia-6-azaspiro[3.4]octane 2,2-dioxide], the Ki was found to be 23 nM.

For `CC(C)(Cc1ccc(C(F)(F)F)nc1)CN1CCC2(C1)CS(=O)(=O)C2` [Example 140, 6-(2,2-Dimethyl-3-(6-(trifluoromethyl)pyridin-3-yl)propyl)-2-thia-6-azaspiro[3.4]octane-2,2-dioxide], the Ki worked out at 18 nM.

As for `C[C@@H](Cc1ccc(C(F)F)cc1)CN1CCC2(C1)CS(=O)(=O)C2` (single isomer, unassigned) [Compound 128A], the inhibition constant Ki was determined as 56 nM.

Take `CC(C)(CN1CC[C@@]2(CCS(=O)(=O)C2)C1)Oc1ccc(C(F)(F)F)cc1` (single isomer, unassigned) [Compound 141A]: the Ki is 44 nM.

Consider `CC(C)(Cc1ccc(C(F)(F)F)nc1)CN1CC[C@@]2(CCS(=O)(=O)C2)C1` (single isomer, unassigned) [Compound 148B], for which the Ki was 32 nM.

For the compound `C[C@@H](Cc1cnc(C(F)(F)F)nc1)CN1CCC2(CC1)CS(=O)(=O)C2` (single isomer, unassigned) [215A*], the Ki amounted to 21 nM.

Take `CC(Cc1ccc(C2CCC2)cc1)CN1CCC2(C1)CS(=O)(=O)C2` (racemic) [Compound 109A, 6-(3-(4-cyclobutylphenyl)-2-methylpropyl)-2-thia-6-azaspiro[3.4]octane 2,2-dioxide]: the Ki came out at 32 nM.

With `O=S1(=O)CC2(CCN(CC[C@H](F)c3ccc(C(F)(F)F)cc3)C2)C1` (single isomer, unassigned) [Compound 122B], the Ki is 18 nM.

With `C[C@H](Cc1cnc(C(F)(F)F)nc1)CN1CCC2(CC1)CS(=O)(=O)C2` (single isomer, unassigned) [215B*], the Ki worked out at 25 nM.

Take `O=S1(=O)CC2(CCN(CC3(Cc4ccc(C(F)(F)F)nc4)CC3)C2)C1` [Example 157, 6-((1-((6-(Trifluoromethyl)pyridin-3-yl)methyl)cyclopropyl)methyl)-2-thia-6-azaspiro[3.4]octane 2,2-dioxide]: the Ki stood at 25 nM.

As to `CC(C)(CN1CC[C@]2(CCS(=O)(=O)C2)C1)Oc1ccc(C(F)(F)F)cc1` (single isomer, unassigned) [Compound 141B], the Ki is 61 nM.

Take `O=S1(=O)CC2(CCN(CCOc3ccc(C(F)(F)F)cc3)C2)C1` [Compound 112, 6-(2-(4-(Trifluoromethyl)phenoxy)ethyl)-2-thia-6-azaspiro[3.4]octane-2,2-dioxide]: the Ki was 28 nM.

As for `C[C@@H](Cc1ccnc(C(F)(F)F)c1)CN1CCC2(C1)CS(=O)(=O)C2` (single isomer, unassigned) [Compound 126A], the Ki amounted to 30 nM.

As for `CC(C)(CN1CCC2(C1)CS(=O)(=O)C2)Oc1cnc(C(F)(F)F)nc1` [Example 144, 6-(2-Methyl-2-((2-(trifluoromethyl)pyrimidin-5-yl)oxy)propyl)-2-thia-6-azaspiro[3.4]octane-2,2-dioxide], the Ki turned out to be 53 nM.

On to `O=S1(=O)CC2(CCN(CCOc3ccc(C(F)(F)F)nc3)CC2)C1` [Compound 230, 7-(2-((6-(Trifluoromethyl)pyridin-3-yl)oxy)ethyl)-2-thia-7-azaspiro[3.5]nonane 2,2-dioxide], for which the Ki was determined as 22 nM.

For the compound `C[C@@H](Cc1ccc(C(F)(F)F)cc1)CN1CCC2(C1)CS(=O)(=O)C2` (single isomer, unassigned) [114A*], the Ki amounted to 35 nM.

`CC(C)(Cc1ccc(C2CCC(F)(F)CC2)c(Cl)c1)CN1CCC2(C1)CS(=O)(=O)C2` [Example 139, 6-(3-(3-Chloro-4-(4,4-difluorocyclohexyl)phenyl)-2,2-dimethylpropyl)-2-thia-6-azaspiro[3.4]octane 2,2-dioxide]: the Ki came out at 30 nM.

In the case of `C[C@H](Cc1ccc(C(F)(F)F)cc1)CN1CCC2(C1)CS(=O)(=O)C2` (single isomer, unassigned) [114B*], the Ki was 34 nM.

As to `CC(C)(CN1CCC2(C1)CS(=O)(=O)C2)Oc1cccc(OC(F)(F)F)c1` [Example 131, 6-(2-Methyl-2-(3-(trifluoromethoxy)phenoxy)propyl)-2-thia-6-azaspiro[3.4]octane 2,2-dioxide], the Ki was found to be 31 nM.

As to `CC(C)(CN1CCC2(C1)CS(=O)(=O)C2)Oc1ccc(C2CCC2)cc1` [Example 129, 6-(2-(4-Cyclobutylphenoxy)-2-methylpropyl)-2-thia-6-azaspiro[3.4]octane-2,2-dioxide], the Ki was found to be 21 nM.

In the case of `O=S1(=O)CCC2(CC1)CN(CCOc1ccc(C(F)(F)F)cc1)C2` [Example 201, 2-(2-(4-(Trifluoromethyl)phenoxy)ethyl)-7-thia-2-azaspiro[3.5]nonane 7,7-dioxide], the Ki came out at 13 nM.

Staying with this assay, now noted: read-out: hEBP SPA Ki.
In the case of `C[C@@H](CN1CCC2(CC1)CS(=O)(=O)C2)Oc1ccc(F)c(F)c1` (single isomer, unassigned) [221A*], the Ki amounted to 10 nM.
